These results are taken from patent US20230158001A1, “PHARMACEUTICAL COMPOSITION COMPRISING BENZIMIDAZOLE DERIVATIVE COMPOUND” (HK INNO.N CORPORATION, priority 2020, published 2023).

Series [1] is described as follows: Pharmacokinetic interaction of tegoprazan and aceclofenac, alone or in combination (Cohort 2). The conditions noted are these: for effect of co-administration on pharmacokinetic properties: co-administration of tegoprazan and aceclofenac compared with administration alone; for Css,max, Geometric LS Mean: 7 days, N = 16.
Method: (§1) The pharmacokinetic interactions of tegoprazan and aceclofenac when administered alone or in combination were evaluated in healthy adult males.
The nature of series [2]: clinical. Also noted: dose or concentration left out as unconfirmed.
Method: as §1
Series [3] is described as follows: Pharmacokinetic interaction of tegoprazan and celecoxib, alone or in combination (Cohort 3). The conditions noted are these: for Css,max, Geometric LS Mean: 7 days, N = 13; for effect of co-administration on pharmacokinetic properties: co-administration of tegoprazan and celecoxib compared with administration alone; for AUC: male, human, in vivo.
Series [4] in a line: Pharmacokinetic interaction of tegoprazan and naproxen, alone or in combination (Cohort 1). Format: in vivo, human (healthy adult males). The conditions noted are these: for effect of co-administration on pharmacokinetic properties: co-administration of tegoprazan and naproxen compared with administration alone.
Series [5] concerns naproxen-induced peptic ulcer model. Nature of the series: Anti-ulcer activity in animal model of acute peptic ulcer induced by naproxen. The class given is in vivo, SD rat. The conditions noted are these: for ED50: Rattus norvegicus, read-out: ED50 (anti-ulcer efficacy). Here is the method: Specifically, each of tegoprazan (0.1 to 10 mg/kg) and esomeprazole (0.3 to 30 mg/kg) was orally administered to each SD rat that has fasted for 72 hours.

[6] abbreviates: tegoprazan, co-administered with naproxen vs alone.
Setting [7] is: tegoprazan, Treatment A: 50 mg tegoprazan alone once a day.
Setting [8] is: tegoprazan, co-administered with aceclofenac vs alone.
The mark [9] stands for this setting: tegoprazan, co-administered with celecoxib vs alone.

In the case of `O=C(O)COC(=O)Cc1ccccc1Nc1c(Cl)cccc1Cl` [Aceclofenac, aceclofenac, reference compound], the “effect of co-administration on pharmacokinetic properties” value (“effect of co-administration” below) in series [1] was “does not affect the pharmacokinetic properties”. This compound registered an AUC in series [2] of 20100 ng·h/mL.
Consider `Cc1ccc(-c2cc(C(F)(F)F)nn2-c2ccc(S(N)(=O)=O)cc2)cc1` [Celecoxib, celecoxib, reference compound], for which the Css,max, Geometric LS Mean in series [3] (celecoxib, Treatment F: 200 mg celecoxib alone twice a day) amounted to 1140 ng/mL; in series [3] (celecoxib, Treatment G: 50 mg tegoprazan once a day + 200 mg celecoxib twice a day), 1350 ng/mL. In addition, the “effect of co-administration” value in series [3] is listed as “does not affect the pharmacokinetic properties”. Besides, the AUC in series [3] (200 mg) was 7800 ng·h/mL.
Consider `COc1ccc2cc([C@H](C)C(=O)O)ccc2c1` [Naproxen, naproxen, reference compound], for which the “effect of co-administration” value in series [4] is “does not affect the pharmacokinetic properties”. Also, the “Css,max, Geometric LS Mean” value is on record as 92.34 ng/mL in series [4] (naproxen, Treatment B: 500 mg naproxen alone twice a day, 7 days, N = 17) and 95.60 ng/mL in series [4] (naproxen, Treatment C: 50 mg tegoprazan once a day + 500 mg naproxen twice a day, 7 days, N = 17).
The term ED50 denotes the midpoint of the dose-response relation. `Cc1nc2cc(C(=O)N(C)C)cc(O[C@H]3CCOc4cc(F)cc(F)c43)c2[nH]1` [Tegoprazan, (S)-4-(5,7-difluorochroman-4-yloxy)-N,N,2-trimethyl-1H-benzo[d]imidazole-6-carboxamide]: the median effective dose (ED50) in series [5] was 0.123 mg/kg. For the same compound, the anti-ulcer activity entry in series [5] (naproxen-induced peptic ulcer model, SD rats, oral 0.1 to 10 mg/kg) is listed as “excellent anti-ulcer activity”. For the same compound, the “effect of co-administration” value in series [4], in series [1] and in series [3] was “does not affect the pharmacokinetic properties” throughout. The AUC in series [4] (male, human, in vivo, tegoprazan, Treatment A: 50 mg tegoprazan alone once a day, 7 days, N = 17, read-out: AUCτ, Geometric LS Mean) turned out to be 2650 ng·h/mL; in series [1] (male, human, in vivo, 50 mg), 2680 ng·h/mL; in series [3] (50 mg), 2990 ng·h/mL. In addition, the “Css,max, Geometric LS Mean” value in series [4] (tegoprazan, Treatment A: 50 mg tegoprazan alone once a day, 7 days, N = 17) was 512.79 ng/mL; in series [4] (tegoprazan, Treatment C: 50 mg tegoprazan once a day + 500 mg naproxen twice a day, 7 days, N = 17) it was 505.59 ng/mL; in series [1] (setting [7]) it was 562.13 ng/mL; in series [1] (tegoprazan, Treatment E: 50 mg tegoprazan once a day + 100 mg aceclofenac twice a day), 529.98 ng/mL; in series [3] (setting [7]) it was 663.83 ng/mL; in series [3] (tegoprazan, Treatment G: 50 mg tegoprazan once a day + 200 mg celecoxib twice a day), 676.24 ng/mL. Besides, the “AUCτ, Geometric LS Mean Ratio (Treatment C/Treatment A), Point Estimate” value in series [4] (setting [6]) is listed as 1.0105. Moreover, the “Css,max, Geometric LS Mean Ratio (Treatment C/Treatment A), Point Estimate” value in series [4] (setting [6]) is listed as 0.9859. In addition, in series [1] (setting [8]), the “AUCτ, Geometric LS Mean Ratio (Treatment E/Treatment A), Point Estimate” value is recorded as 1.0269. Besides, the “Css,max, Geometric LS Mean Ratio (Treatment E/Treatment A), Point Estimate” value in series [1] (setting [8]) was 0.9428. The “AUCτ, Geometric LS Mean Ratio (Treatment G/Treatment A), Point Estimate” value in series [3] (setting [9]) is listed as 1.0111. Besides, the “Css,max, Geometric LS Mean Ratio (Treatment G/Treatment A), Point Estimate” value in series [3] (setting [9]) was 1.0187.
As to `COc1ccc2nc([S@@+]([O-])Cc3ncc(C)c(OC)c3C)[nH]c2c1` [esomeprazole, reference compound], in series [5], the ED50 was found to be 4.12 mg/kg.
